Reference: paper PMC10525585, “Evaluation of the Antibacterial Effect of Aurone-Derived Triazoles on Staphylococcus aureus” (Antibiotics, 2023)
Like-named read-outs stand apart in the source and are kept apart here.

How the values were obtained:
Hemolysis assay = format: cell-based, human; conditions: human, human red blood cells (0.5% final suspension, single donor), 1 h, 37 °C, read-out: Hemolysis by AT Compounds (%)
Description: (§1) A single donor-specific blood sample was acquired from Innovative Research Inc. (Novi, MI, USA) for the assay (donor#:1WB3ALS40ML-36517). A volume of 1–2 mL of the human red blood cells (hRBCs in Alsevier’s solution) was mixed with 8–10 mL of Phosphate-Buffered Saline (PBS) in a 15 mL centrifuge tube to pellet by centrifugation at 1400× g in a swinging bucket centrifuge for 10 min. The supernatant was then removed, and the cells were washed with 10 mL of PBS two additional times. The cells were resuspended in PBS to achieve a final 1% solution of hRBCs.
(§2) The wells of a 96-well U-bottom plate that contained AT compounds were prefilled with 50 µL of PBS. A 2-fold dilution of AT compounds was prepared. For each triplicate, an initial AT dilution was prepared using 6 µL of AT stock solution in 144 µL of PBS. This initial mixture was diluted 2-fold on a 96-well plate following the method described above for a final volume of 50 µL of diluted AT in each well. As a final step, 50 µL of the 1% hRBC solution was added to each well, except the blank wells. PBS and hRBCs were used for negative control, whereas hRBCs with 1% and 0.1% Triton-X100 were used as positive controls. After 1 h of incubation at 37 °C in a humidified incubator, the plate was centrifuged at 1000 rpm for 10 min in a Thermo Sorvall Legend XTR centrifuge with a TX-750 swinging bucket rotor (Thermo Fisher Scientific, Waltham, MA, USA) to pellet intact cells. After centrifugation, 50 µL of supernatant was transferred from each well into a new 96-well U-bottom plate and hemolysis of the hRBCs detected in a plate-reader for absorbance at 405 nm. Hemolytic activity for all concentrations of the ATs was computed following this formula:(1) % hemolysis=OD405nmsample− OD405nmnegative control/OD405nmpositivecontrol[…]

human red blood cells = experiment: Hemolysis assay; format: cell-based; conditions: overall statement
Description: as §1, §2

[1] = Cytotoxicity assay (PrestoBlue); format: cell-based, Human; conditions: human, HepG2 cells (ATCC HB-8065), Table 1 and text; 24 h incubation
[2] = Cytotoxicity assay (PrestoBlue); conditions: human, HeLa cells (ATCC CCL-2)
Description: Human HeLa epithelial (ATCC CCL-2) and HepG2 liver epithelial (ATCC HB-8065) cell lines were used to determine toxicity of AT compounds for mammalian cells. The cells were grown in a complete culture medium of RPMI 1640 with 10% heat-inactivated fetal bovine serum (FBS) at 37 °C in 5% CO2 (95% room air) in a humidified incubator. Before use, attached cell monolayers, which had reached at least 90% confluency, were detached by trypsinization with trypsin-EDTA (0.25%) and resuspension in fresh complete culture media. For experiments, the stock concentration of 1 × 10^5 cells/mL (to achieve a final 1 × 10^4 cells/well concentration) was achieved by counting the trypsinized cells and adjusting to their final concentration for assays.
HeLa or HepG2 cells were pre-seeded into a 96-well transparent, flat bottom plate by adding a volume of 100 µL stock cell concentration (1 × 10^5 cells/mL) in complete culture media to each well. The plate was incubated overnight at 37 °C in a 5% CO2 (95% room air) humidified incubator. After the incubation and before mixing in the AT compounds, a 100 µL volume of fresh complete culture media was added to the pre-seeded wells. The 2-fold dilutions of AT compounds in triplicates were prepared on a separate 96-well plate. Once the dilution plate was prepared, dilutions were transferred into the pre-seeded plate to achieve the same concentrations of ATs as for the inhibition assay described above. The final inoculated plate was then returned to the 5% CO2 (95% room air) humidified incubator for an additional 24 h of incubation with the diluted ATs. Controls were blank wells containing only media, wells with cells and DMSO in complete culture media, and wells with cells and complete culture media only. Measurement of toxicity was analogous to the inhibition assay except that 20 µL of PrestoBlue^TM was used and the incubation was 3–6 h before reading with the plate-reader. Cytotoxicity concentration (CC50) was defined as the concentration where half of the cells remained viable and was computed using GraphPad Prism.

[3] = test system: methicillin-resistant S. aureus ATCC 43300 (MRSA); experiment: Antibacterial assay (broth microdilution, PrestoBlue); format: cell-based, Staphylococcus aureus
Description: (§3) MRSA strain ATCC 43300 and MSSA strain S. aureus ATCC 29213 were grown on Tryptic Soy Agar (TSA) plates. Before use, an isolated colony was transferred from the TSA plate into Tryptic Soy Broth (TSB) and incubated 18–24 h in a humidified incubator at 37 °C. To adjust for a standard concentration of bacteria, the turbidity of the culture was measured at 600 nm, and its optical density (OD600) adjusted to be in the range 0.08–0.12 which equates to a concentration of approximately 1 × 10^8 CFU/mL. This suspension was diluted 1:20 in TSB. […] MRSA strain S. aureus ATCC 43300 and MSSA strain S. aureus ATCC 29213 were used for all testing in this study.
(§4) The assay for anti-Staphylococcal activity of AT compounds was prepared in 96-well transparent, U-bottom plates. A series of 2-fold dilutions of AT concentrations was tested in triplicate, with each well containing 10 µL of prepared bacterium and 90 µL of AT mixture in CAMHB. […] Blank wells with only CAMHB, a negative control well with 10 µL of bacterium solution mixed into 90 µL CAMHB, a vehicle control well with bacteria mixed into 1% DMSO in CAMBH, and a positive cell death control with vancomycin (1 µL of stock 2 mg/mL solution in 89 µL CAMHB with 10 µL of bacteria) were included. The plate was incubated for 18–24 h at 37 °C in a humidified incubator. Before measurement, PrestoBlue^TM dye (Invitrogen, Carlsbad, CA, USA) was added (10 µL per well) and incubated for 1 h with aluminum foil covering the plate. A CLARIOstar® (BMG LABTECH, Cary, NC, USA) multi-mode plate reader was used to measure the fluorescence at wavelengths of 560 nm for excitation and 590 nm for emission. Inhibitory concentration (IC50) values were defined as half inhibitory concentration and were computed using GraphPad Prism version 9.1 software.

[4] = test system: methicillin-sensitive S. aureus ATCC 29213 (MSSA); experiment: microbe, parasite or virus in culture; conditions: for IC50 / inhibition at 100 µM: Staphylococcus aureus; for IC50: read-out: IC50 (µM) MSSA; for inhibition at 100 µM: read-out: MSSA inhibition (100µM); for Max SI (CC50/IC50): HepG2 CC50 / MSSA IC50
Description: as §3, §4

[5] = CC50 (µM) HeLa, Table 1 and text, 24 h incubation
[6] = Staphylococcus aureus, Table 1 and text, 18–24 h, CAMHB, read-out: IC50 (µM) MRSA
[7] = Staphylococcus aureus, Table S1
[8] = Staphylococcus aureus, Table S1, read-out: IC50 MRSA

| IC50 [3, 6] | IC50 ([3]; Table 1 and text, 18–24 h, CAMHB, read-out: IC50 (µM) MRSA) | IC50 [4] | IC50 [3, 8] | Compound | hemolysis at 1 h, 3.125 µM (Hemolysis assay) | hemolysis at 1 h, 6.25 µM (Hemolysis assay) | hemolysis at 1 h, 12.5 µM (Hemolysis assay) | hemolysis at 1 h, 25 µM (Hemolysis assay) | hemolysis at 1 h, 50 µM (Hemolysis assay) | hemolysis at 1 h, 100 µM (Hemolysis assay) | hemolytic activity for human erythrocytes (human red blood cells) | CC50 at 24 h [1] | CC50 at 24 h [2, 5] | CC50 at 24 h ([2]; CC50 HeLa (µM), Table S1) | inhibition at 100 µM [3, 7] | inhibition at 100 µM [4] | Max SI (CC50/IC50) [4] |
| --- | --- | --- | --- | --- | --- | --- | --- | --- | --- | --- | --- | --- | --- | --- | --- | --- | --- |
| < 6 µM | 3.87 µM | 3.09 µM |  | O=C(c1ccccc1O)c1n[nH]nc1-c1ccc(Br)s1 [AT137] | -2.6% | -0.5% | -0.8% | 2.7% | 1.4% | 1.8% | not hemolytic | 39.8 µM | 2.84 µM | 12.7 µM | 93.8% | 87.5% |  |
| 8.29 µM |  | 3.18 µM | 35.4 µM | O=C(c1ccccc1O)c1n[nH]nc1-c1cccc(C(F)(F)F)c1 [AT116] | 0.8% | -0.7% | 2.3% | 2.1% | 2.6% | 3.5% | not hemolytic | 50.9 µM | 56.8 µM | 11.7 µM | 100% | 82% | 16.01 |
| 22.4 µM |  | 5.44 µM | 23.5 µM | O=C(c1ccccc1O)c1n[nH]nc1-c1ccc(Cl)cc1 [AT106] | 0.6% | -0.1% | 1.2% | 1.2% | -0.3% | 1.1% | not hemolytic | > 60 µM | > 60 µM | 16.2 µM | 64.1% | 87.4% | 12.99 |
